Key:
[1] = Solubility of organic acceptor compound in tetrahydrofuran (solvent of coating solution); assay type: physicochemical; settings: for Solubility / Solubility/THF [% by weight]: THF; for Solubility/THF [% by weight]: organic acceptor; for Solubility/THF [% by weight] of organic acceptor: in THF
Text: Specific examples of the organic acceptor compound are shown below.

[2] = Reduction potential of organic acceptor compound by cyclic voltammetry; assay type: physicochemical; settings: for Reduction potential [V] of organic acceptor: organic acceptor added when producing the phthalocyanine crystal, reference electrode (Ag+/Ag); for Reduction potential [V] / Redox potential: organic acceptor; for Reduction Potential: to reference electrode (Ag+/Ag), cyclic voltammetry in dichloromethane
Procedure: The reduction potential of the organic acceptor compound was determined by a cyclic voltammetry. The measurement conditions are shown below.
Work electrode: glassy carbon
Counter electrode: platinum
Reference electrode: silver/silver nitrate (0.1 mol/1AgNO3-acetonitrile solution)
Electrolyte: tetra-n-butylammonium perchlorate (0.1 mol)
Specimen: acceptor compound (0.001 mol)
Solvent: dichloromethane (1 L)

Solubility [1] | Solubility/THF [% by weight] ([1]; Table 1) | Solubility/THF [% by weight] ([1]; Table 2) | Solubility/THF [% by weight] of organic acceptor ([1]; Table 3) | Solubility/THF [% by weight] of organic acceptor ([1]; Table 5) | Reduction potential [V] of organic acceptor ([2]; Table 3) | Reduction potential [V] of organic acceptor ([2]; Table 5) | Reduction potential [V] ([2]; Table 1) | Reduction potential [V] ([2]; Table 2) | Reduction Potential [2] | Solubility/THF [% by weight] ([1]; Table 4) | Solubility/THF [% by weight] ([1]; Table 6) | Structure (SMILES) | Redox potential ([2]; Table 4) | Redox potential ([2]; Table 6)
1 % by weight | 1 % by weight | 1 % by weight | 1 % by weight | 1 % by weight | −0.85 V | −0.85 V | −0.85 V | −0.85 V | −0.85 V | – | – | O=C1c2ccc3c4c(ccc(c24)C(=O)N1C1CCCCC1)C(=O)N(C1CCCCC1)C3=O [AC-3] | – | –
3 % by weight | 3 % by weight | 3 % by weight | 3 % by weight | 3 % by weight | −1.28 V | −1.28 V | −1.28 V | −1.28 V | −1.28 V | – | – | O=C1NC(=O)c2ccccc21 [AC-4] | – | –
3 % by weight | 3 % by weight | 3 % by weight | 3 % by weight | 3 % by weight | −0.95 V | −0.95 V | −0.95 V | −0.95 V | −0.95 V | 3 % by weight | 3 % by weight | O=C1C(Oc2ccccc2)=C(Oc2ccccc2)C(=O)c2ccccc21 [AC-1] | −0.95 | −0.95
3 % by weight | 3 % by weight | 3 % by weight | 3 % by weight | 3 % by weight | −0.85 V | −0.85 V | −0.85 V | −0.85 V | −0.85 V | – | – | CC(C)(C)C1=CC(=C2C=C(C(C)(C)C)C(=O)C(C(C)(C)C)=C2)C=C(C(C)(C)C)C1=O [AC-2] | – | –
11 % by weight | – | – | – | – | – | – | – | – | −1.31 V | 11 % by weight | 11 % by weight | Cc1ccc(C(=O)c2ccc(C)cc2)cc1 [AC-8, reference compound] | −1.31 | −1.31

Structure (SMILES) | Solubility [1] | Solubility/THF [% by weight] ([1]; Table 1) | Solubility/THF [% by weight] ([1]; Table 2) | Solubility/THF [% by weight] of organic acceptor ([1]; Table 3) | Solubility/THF [% by weight] of organic acceptor ([1]; Table 5) | Reduction potential [V] of organic acceptor ([2]; Table 3) | Reduction potential [V] of organic acceptor ([2]; Table 5) | Reduction potential [V] ([2]; Table 1) | Reduction potential [V] ([2]; Table 2) | Reduction Potential [2] | Solubility/THF [% by weight] ([1]; Table 4) | Solubility/THF [% by weight] ([1]; Table 6) | Redox potential ([2]; Table 4) | Redox potential ([2]; Table 6)
O=C(c1ccccc1)c1ccccc1 [AC-6, reference compound] | – | – | – | – | – | – | – | – | – | −1.32 V | – | – | −1.32 | −1.32
O=C1OC(=O)c2ccccc21 [AC-5, reference compound] | 5 % by weight | – | – | – | – | – | – | – | – | −1.53 V | 5 % by weight | 5 % by weight | −1.53 | −1.53

From patent publication US6391505B1, “Phthalocyanine crystal and its production, and electrophotosensitive material using the same” (Kyocera Mita Corporation, priority 1999, dated 2002)
